Experimental findings from patent US10105440B2, “Synthetic derivatives of MPL and uses thereof” (VARIATION BIOTECHNOLOGIES INC., priority 2011, dated 2018) are described below.

Data set [1] can be described thus: Reverse phase HPLC analysis of adjuvant co-melted with 1-monopalmitoyl glycerol (thermostability). The data set is classed as physicochemical. The method, then: Reverse phase HPLC analysis of PHAD and MAV4 co-melted with 1-monopalmitoyl glycerol at the inverted melt method temperature (Example 4) was used to evaluate the thermostability or thermolability of the two adjuvants under these thermal conditions. In the procedure, the samples were prepared as follows, in isopropanol (IPA) using 1.5 ml autoinjection vials as duplicates: PHAD: 20 μg PHAD+180 μg 1-monopalmitoyl glycerol (1:9 wt ratio); MAV4: 10 μg+90 μg 1-monopalmitoyl glycerol (1:9 wt ratio).
The samples were lyophilized overnight. The dried samples were melted for six minutes at 120° C. and 140° C. Each sample was then dissolved in IPA to give a concentration of 0.1 μg/μl for an HPLC load of 20 μL.

For data set [2], the system named is Human Peripheral Blood Mononuclear Cell (hPBMC). Kind of data set: Cytokine induction assay (BD Cytometric Bead Array) in hPBMC culture supernatants. The data set is classed as cell-based. The settings on record: human PBMCs (n=3) stimulated 48 hours, CBA assay. The source says: The BD™ Cytometric Bead Array (CBA) Human inflammatory Cytokines Kit was used to quantitatively measure Tumor Necrosis Factor (TNF a), Interleukin-6 (IL-6) and Interleukin-1β (IL-1β) protein levels in single samples of Human Peripheral Blood Mononuclear Cell (hPBMC) culture supernatants pretreated with either the adjuvant PHAD or MAV4. The detection reagent provided in the kit was a mixture of phycoerythrin (PE)-conjugated antibodies, which provides a fluorescent signal in proportion to the amount of bound cytokine.
When the capture beads and detector reagent are incubated with an unknown sample containing recognized cytokines, sandwich complexes (capture bead+cytokine+detection reagent) are formed. These complexes are measured using flow cytometry.
To perform the assay lyophilized human inflammatory cytokine standards were reconstituted with assay diluent and serially diluted (standard curve for each protein covers a defined set of concentrations from […]) and test samples were diluted to the desired dilution factor using the assay diluent before mixing all assay tubes with capture beads (50 μl) and PE detection reagent (50 μl). […] Samples were then analyzed by flow cytometry and data was analyzed using FCAP Array Software. […]

Take “phosphorylated hexaacyl disaccharide [PHAD]”: the “Area Under the Curve (AUC) of the HPLC peak” value in data set [1] (co-melted with 1-monopalmitoyl glycerol (1:9 wt), melted six minutes at 140° C. versus 120° C.) is reported as “significant decrease”. Further, in data set [1] (co-melted with 1-monopalmitoyl glycerol, melted at 120° C. and 140° C.), the “minor peaks (degradation) in the chromatogram” value is listed as “No minor peaks were observed”. For the same substance, the “secretion of TNF-α, IL-1β and IL-6” value in data set [2] was “induced dose-dependent immune responses”.
